The source of these data is patent US9598416B2, “Substituted benzothienyl-pyrrolotriazines and uses thereof in the treatment cancer” (Bayer Intellectual Property GmbH, priority 2011, dated 2017).

Counter-ions that a name gives are not always drawn. Like-named read-outs stand apart in the source and are kept apart here.

In one test the target is human FGFR-3 (Homo sapiens (Human), UniProt P22607). The test is described as follows: FGFR-3 kinase assay (TR-FRET). In kind it is biochemical. To be noted: 10 μM ATP; compounds of the invention. On the technique in general: In TR-FRET formats the signal depends on donor and acceptor labels being close together.
human FGFR-3, sequence (P22607 397-806): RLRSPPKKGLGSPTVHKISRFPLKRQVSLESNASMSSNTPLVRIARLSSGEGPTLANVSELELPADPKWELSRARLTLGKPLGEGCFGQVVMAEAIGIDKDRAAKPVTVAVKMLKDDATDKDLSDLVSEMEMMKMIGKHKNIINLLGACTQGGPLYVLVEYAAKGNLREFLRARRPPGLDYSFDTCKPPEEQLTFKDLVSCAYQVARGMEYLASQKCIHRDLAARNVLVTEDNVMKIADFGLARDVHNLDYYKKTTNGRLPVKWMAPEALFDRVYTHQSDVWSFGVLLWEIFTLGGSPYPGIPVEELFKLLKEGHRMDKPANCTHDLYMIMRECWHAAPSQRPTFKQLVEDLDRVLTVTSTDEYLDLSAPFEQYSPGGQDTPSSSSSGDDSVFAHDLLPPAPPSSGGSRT
The next test has as its target human mTOR (Homo sapiens (Human), UniProt P42345). The test is described as follows: mTOR kinase assay (TR-FRET, for comparative purposes). To be noted: for inhibition at 1 µM: read-out: mTOR % inhibition @ 1 μM. In kind it is biochemical. The source says:
mTOR inhibitory activity of the compounds of the present invention was quantified employing the TR-FRET based mTOR assay as described in the following paragraphs: Recombinant fusion tagged mTOR protein [glutathione-S-transferase (GST) fused to human mTOR amino acids from 1360 to 2549], expressed in insect cells and purified by glutathione-sepharose affinity chromatography, was purchased from Invitrogen (Cat.-No. 4753) and used as enzyme. As substrate for the kinase reaction, a recombinant fusion protein of GFP and 4E-BP1 (purchased from Invitrogen, Cat.-No. PV4759) was used. Test compounds were dissolved in DMSO to generate 10 mM stock solutions. […] The resulting mixture was incubated for 1 h at 22° C. to allow formation of the complex between the phosphorylated substrate and the Tb-chelate labelled antibody. Subsequently, the amount of phosphorylated substrate was evaluated by measurement of the resonance energy transfer from the Tb-chelate to the GFP. For this, the fluorescence emissions at 495 nm and 520 nm after excitation at 340 nm was measured in an Envision 2104 multilabel reader (Perkin-Elmer). The ratio of the emissions at 520 nm and at 495 nm was taken as the measure for the amount of phosphorylated substrate.

[1] abbreviates: 1 μM test compound, mean inhibition values.

human mTOR, sequence (P42345 1360-2549): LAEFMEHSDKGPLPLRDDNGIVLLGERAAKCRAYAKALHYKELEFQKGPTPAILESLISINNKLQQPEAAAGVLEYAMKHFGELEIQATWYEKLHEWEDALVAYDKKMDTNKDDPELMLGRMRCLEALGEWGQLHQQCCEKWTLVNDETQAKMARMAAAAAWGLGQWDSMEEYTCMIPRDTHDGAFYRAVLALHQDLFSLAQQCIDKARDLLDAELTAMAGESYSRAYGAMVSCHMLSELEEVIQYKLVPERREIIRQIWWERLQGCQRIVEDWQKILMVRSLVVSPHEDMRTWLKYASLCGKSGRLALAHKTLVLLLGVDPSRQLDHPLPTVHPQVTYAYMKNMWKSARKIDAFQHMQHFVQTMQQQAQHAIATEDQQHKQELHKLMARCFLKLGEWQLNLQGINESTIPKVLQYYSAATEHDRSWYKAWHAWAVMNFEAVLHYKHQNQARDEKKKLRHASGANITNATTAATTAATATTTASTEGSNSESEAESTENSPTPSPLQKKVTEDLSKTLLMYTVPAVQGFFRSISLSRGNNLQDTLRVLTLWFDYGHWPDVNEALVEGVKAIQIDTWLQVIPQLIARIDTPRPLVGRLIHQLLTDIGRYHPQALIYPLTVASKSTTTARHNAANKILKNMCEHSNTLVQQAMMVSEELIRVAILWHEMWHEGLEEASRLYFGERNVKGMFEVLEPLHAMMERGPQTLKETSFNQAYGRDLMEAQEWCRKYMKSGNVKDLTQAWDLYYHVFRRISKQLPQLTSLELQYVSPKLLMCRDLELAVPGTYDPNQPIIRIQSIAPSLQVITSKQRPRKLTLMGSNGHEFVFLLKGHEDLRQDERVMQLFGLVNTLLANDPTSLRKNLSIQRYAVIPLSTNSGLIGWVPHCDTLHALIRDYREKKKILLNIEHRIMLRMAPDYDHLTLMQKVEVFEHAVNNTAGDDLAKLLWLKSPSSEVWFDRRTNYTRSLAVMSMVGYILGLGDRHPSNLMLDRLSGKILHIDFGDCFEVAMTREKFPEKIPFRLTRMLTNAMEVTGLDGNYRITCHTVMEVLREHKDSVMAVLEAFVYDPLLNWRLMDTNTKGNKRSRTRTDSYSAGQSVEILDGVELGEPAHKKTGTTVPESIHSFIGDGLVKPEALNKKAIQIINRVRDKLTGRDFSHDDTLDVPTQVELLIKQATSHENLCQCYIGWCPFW

Usually IC50 stands for the concentration needed to halve the response being measured. Read a high IC50 as weaker potency in that assay. As usually defined, the inhibition is the drop in the measured response relative to a control, in per cent. As for `COc1cc(C)cc2cc(-c3c(COCCN)cn4ncnc(N)c34)sc12` [Example 8, 6-[(2-Aminoethoxy)methyl]-5-(7-methoxy-5-methyl-1-benzothiophen-2-yl)pyrrolo[2,14][1,2,4]-triazin-4-amine dihydrochloride], the half-maximal inhibitory concentration (IC50) at human FGFR-3 was found to be 0.2 nM. Moreover, the inhibition at 1 µM on human mTOR (setting [1]) is 4.7%.

Compound `COc1cc(C)cc2cc(-c3c(CNC(C)=O)cn4ncnc(N)c34)sc12` [Example 9, N-{[4-Amino-5-(7-methoxy-5-methyl-1-benzothiophen-2-yl)pyrrolo[2,1-f][1,2,4]triazin-6-yl]-methyl}acetamide] yielded an IC50 at human FGFR-3 of 0.2 nM. Moreover, the “mTOR % inhibition @ 1 μM” value at human mTOR (setting [1]) is given as “no inhib. effect detect”.

Regarding `COc1cc(C)cc2cc(-c3c(CNCCO)cn4ncnc(N)c34)sc12` [Example 10, 2-({[4-Amino-5-(7-methoxy-5-methyl-1-benzothiophen-2-yl)pyrrolo[2,1-f][1,2,4]triazin-6-yl]-methyl}amino)ethanol dihydrochloride], the midpoint of inhibition against human FGFR-3, the IC50, lay at 1.4 nM. The inhibition at 1 µM on human mTOR was 10.3%.

For `COc1cc(C)cc2cc(-c3c(CN4CCNC(=O)C4)cn4ncnc(N)c34)sc12` [Example 11, 4-{[4-Amino-5-(7-methoxy-5-methyl-1-benzothiophen-2-yl)pyrrolo[2,1-f][1,2,4]triazin-6-yl]-methyl}piperazin-2-one], the 50% inhibitory concentration (IC50) on human FGFR-3 is 0.4 nM. Further, the “mTOR % inhibition @ 1 μM” value on human mTOR (setting [1]) is listed as “no inhib. effect detect”.

For the compound `CNC(=O)CNCc1cn2ncnc(N)c2c1-c1cc2cc(C)cc(OC)c2s1` [Example 13, N^2-{[4-Amino-5-(7-methoxy-5-methyl-1-benzothiophen-2-yl)pyrrolo[2,1-f][1,2,4]triazin-6-yl]-methyl}-N-methylglycinamide], at human FGFR-3, half-maximal inhibition (IC50) was put at 15.1 nM. The inhibition at 1 µM at human mTOR (setting [1]) worked out at 5.3%.

`COc1cc(C)cc2cc(-c3c(CN(C)CC(N)=O)cn4ncnc(N)c34)sc12` [Example 14, N^2-{[4-Amino-5-(7-methoxy-5-methyl-1-benzothiophen-2-yl)pyrrolo[2,1-f][1,2,4]triazin-6-yl]-methyl}-N^2-methylglycinamide] returned an IC50 against human FGFR-3 of 0.8 nM. Further, on human mTOR (setting [1]), the inhibition at 1 µM turned out to be 0.3%.

On human FGFR-3, `CCOC(=O)CNCc1cn2ncnc(N)c2c1-c1cc2cc(C)cc(OC)c2s1` [Example 15, Ethyl N-{[4-amino-5-(7-methoxy-5-methyl-1-benzothiophen-2-yl)pyrrolo[2,1-f][1,2,4]triazin-6-yl]-methyl}glycinate dihydrochloride] came in with a half-inhibitory concentration (IC50) of 87.1 nM. In addition, on human mTOR, the inhibition at 1 µM was 4%.

On human FGFR-3, `COc1cc(C)cc2cc(-c3c(CNCC(N)=O)cn4ncnc(N)c34)sc12` [Example 16, N^2-{[4-Amino-5-(7-methoxy-5-methyl-1-benzothiophen-2-yl)pyrrolo[2,1-f][1,2,4]triazin-6-yl]-methyl}glycinamide] showed a 50% inhibitory concentration (IC50) of 2.3 nM. On human mTOR (setting [1]), the inhibition at 1 µM worked out at 8.8%.

Consider `COc1cc(C)cc2cc(-c3c(CNCC(C)(C)O)cn4ncnc(N)c34)sc12` [Example 17, 1-({[4-Amino-5-(7-methoxy-5-methyl-1-benzothiophen-2-yl)pyrrolo[2,1-f][1,2,4]triazin-6-yl]-methyl}amino)-2-methylpropan-2-ol dihydrochloride], for which it took 1.8 nM to reach half-maximal inhibition against human FGFR-3 (IC50). Also, the “mTOR % inhibition @ 1 μM” value at human mTOR (setting [1]) is “no inhib. effect detect”.

As to `COc1cc(C)cc2cc(-c3c(CNCCCO)cn4ncnc(N)c34)sc12` [Example 20, 3-({[4-Amino-5-(7-methoxy-5-methyl-1-benzothiophen-2-yl)pyrrolo[2,1-f][1,2,4]triazin-6-yl]-methyl}amino)propan-1-ol dihydrochloride], the concentration for half-maximal inhibition (IC50) at human FGFR-3 amounted to 15.2 nM. In addition, the “mTOR % inhibition @ 1 μM” value at human mTOR (setting [1]) is reported as “no inhib. effect detect”.

`COc1cc(C)cc2cc(-c3c(CN4CCN(C(C)=O)CC4)cn4ncnc(N)c34)sc12` [Example 21, 1-(4-{[4-Amino-5-(7-methoxy-5-methyl-1-benzothiophen-2-yl)pyrrolo[2,1-f][1,2,4]triazin-6-yl]-methyl}piperazin-1-yl)ethanone] yielded a half-maximal inhibitory concentration (IC50) against human FGFR-3 of 27.9 nM. In addition, the “mTOR % inhibition @ 1 μM” value at human mTOR (setting [1]) is recorded as “no inhib. effect detect”.

For `COc1cc(C)cc2cc(-c3c(CN4CCN(C(=O)OC(C)(C)C)CC4)cn4ncnc(N)c34)sc12` [Example 22, tert-Butyl 4-{[4-amino-5-(7-methoxy-5-methyl-1-benzothiophen-2-yl)pyrrolo[2,1-f][1,2,4]triazin-6-yl]methyl}piperazine-1-carboxylate trifluoroacetate], half-maximal inhibition at human FGFR-3 (IC50) was put at 10.8 nM. For the same compound, the inhibition at 1 µM on human mTOR was determined as 1.6%.

Take `COc1cc(C)cc2cc(-c3c(CN4CCOCC4)cn4ncnc(N)c34)sc12` [Example 23, 5-(7-Methoxy-5-methyl-1-benzothiophen-2-yl)-6-(morpholin-4-ylmethyl)pyrrolo[2,1-f][1,2,4]triazin-4-amine]: on human FGFR-3, the IC50 came out at 17.4 nM. Moreover, the inhibition at 1 µM on human mTOR (setting [1]) amounted to 2%.

As for `COc1cc(C)cc2cc(-c3c(CNCCNC(C)=O)cn4ncnc(N)c34)sc12` [Example 24, N-[2-({[4-Amino-5-(7-methoxy-5-methyl-1-benzothiophen-2-yl)pyrrolo[2,1-f][1,2,4]triazin-6-yl]-methyl}amino)ethyl]acetamide trifluoroacetate], the IC50 against human FGFR-3 worked out at 8.7 nM. For the same compound, the inhibition at 1 µM at human mTOR came to 0.3%.

Compound `COc1cc(C)cc2cc(-c3c(CN4CCNCC4)cn4ncnc(N)c34)sc12` [Example 25, 5-(7-Methoxy-5-methyl-1-benzothiophen-2-yl)-6-(piperazin-1-ylmethyl)pyrrolo[2,1-f][1,2,4]triazin-4-amine trihydrochloride] showed a concentration for half-maximal inhibition (IC50) against human FGFR-3 of 0.4 nM. Also, the “mTOR % inhibition @ 1 μM” value at human mTOR (setting [1]) is recorded as “no inhib. effect detect”.

For `COc1cc(C)cc2cc(-c3c(CN[C@H]4CCNC4=O)cn4ncnc(N)c34)sc12` [Example 27, (3S)-3-({[4-Amino-5-(7-methoxy-5-methyl-1-benzothiophen-2-yl)pyrrolo[2,1-f][1,2,4]triazin-6-yl]-methyl}amino)pyrrolidin-2-one dihydrochloride], at human FGFR-3, 0.5 nM corresponded to half-maximal inhibition (IC50). The inhibition at 1 µM at human mTOR amounted to 5%.

Turning to `CCOCc1cn2ncnc(N)c2c1-c1cc2cc(C)cc(OC)c2s1` [Example 28, 6-(Ethoxymethyl)-5-(7-methoxy-5-methyl-1-benzothiophen-2-yl)pyrrolo[2,1-f][1,2,4]triazin-4-amine], inhibition against human FGFR-3 was half-maximal at 14.2 nM (IC50). The inhibition at 1 µM on human mTOR (setting [1]) was 35.5%.

`Cc1ccc2sc(-c3c(CN4CCNC(=O)C4)cn4ncnc(N)c34)cc2c1` [Example 29, 4-{[4-Amino-5-(5-methyl-1-benzothiophen-2-yl)pyrrolo[2,1-f][1,2,4]triazin-6-yl]methyl}piperazin-2-one] came in with an IC50 against human FGFR-3 of 18.7 nM. Moreover, the inhibition at 1 µM on human mTOR (setting [1]) is 0.6%.

As for `COc1cccc2cc(-c3c(CN4CCNC(=O)C4)cn4ncnc(N)c34)sc12` [Example 30, 4-{[4-Amino-5-(7-methoxy-1-benzothiophen-2-yl)pyrrolo[2,1-f][1,2,4]triazin-6-yl]methyl}piperazin-2-one], the IC50 against human FGFR-3 was 3.1 nM. Besides, at human mTOR (setting [1]), the inhibition at 1 µM was found to be 1.6%.

Regarding `COc1cc(Cl)cc2cc(-c3c(CN4CCNC(=O)C4)cn4ncnc(N)c34)sc12` [Example 31, 4-{[4-Amino-5-(5-chloro-7-methoxy-1-benzothiophen-2-yl)pyrrolo[2,1-f][1,2,4]triazin-6-yl]methyl}-piperazin-2-one], at human FGFR-3, the half-maximal inhibitory concentration (IC50) stood at 0.3 nM. The inhibition at 1 µM on human mTOR (setting [1]) was 9.1%.
